{"source": "paper PMC12469672", "about": "“Effects on Oral Squamous Carcinoma Cell Lines and Their Mechanisms of Pyrazole N-Aryl Sulfonate: A Novel Class of Selective Cyclooxygenase-2 Inhibitors” (International Journal of Molecular Sciences, 2025)", "key": {"[1]": {"tested_on": "JAK/STAT signaling pathway in SAS cells", "experiment": "Western blot JAK/STAT signaling pathway, SAS", "type": "cell-based", "experimental": "Cell lysates were centrifuged at 12,000× g for 10 min at 4 °C and then quantified using the BCA Protein Assay Kit (CW0014S, Cwbio, Taizhou, China). The lysate was denatured with sodium dodecyl sulfate–polyacrylamide gel electrophoresis (SDS-PAGE) sample loading buffer (P1040, Solarbio, Beijing, China), followed by SDS-PAGE and electrotransfer to polyvinylidene difluoride membranes (10600023, Cytiva, Marlborough, MA, USA). […] The bands were visualized by employing an ECL detection reagent (36208ES76, Yeasen, Shanghai, China) and independently quantified twice using ImageJ (v1.8.0.322) and ChemiScope Analysis (Version 2.1.6.0) software. […]"}, "CAL-27 cells": {"tested_on": "CAL-27 cells", "experiment": "Annexin V-FITC/PI flow cytometry apoptosis, CAL-27", "type": "cell-based", "settings": "CAL-27, 24 h, vs control", "experimental": "After 24 h drug treatment at the predefined working concentrations, CAL-27 and SAS cells were trypsinized, centrifuged (200× g, 5 min, RT), and washed twice with 1 mL ice-cold PBS. Cell aliquots ((5–10) × 10^4 cells) were resuspended in 195 μL Annexin V-FITC binding buffer, followed by sequential addition of 5 μL Annexin V-FITC and 10 μL propidium iodide (PI) (BMS500FI-100, Thermo Fisher Scientific, Wien, Austria) with gentle mixing. After 10–20 min of incubation in darkness (20–25 °C) with intermittent resuspension (2–3 times), samples were placed on ice and analyzed within 1 h using a flow cytometer (CytExpert software [Version 2.4.0.28, Beckman Coulter, Brea, CA, USA]). Triplicate independent experiments were performed for statistical analysis."}, "BCL2 mRNA in SAS cells": {"tested_on": "BCL2 mRNA in SAS cells", "experiment": "RT-qPCR BCL2 mRNA, SAS", "type": "cell-based", "settings": "vs NC and CXB groups", "experimental": "(§1) Equal amounts of RNA were reverse transcribed into cDNA using the Reverse Transcription Kit (AG11705, Accurate Biology, Guangzhou, China) following the manufacturer’s instructions. Quantitative PCR was performed on a QIAGEN Rotor-GeneQ system (9001862, QIAGEN, Hilden, Germany) with SYBR Green Pro Taq HS Premix II (AG11702, Accurate Biology, China).\n(§2) The PCR protocol consisted of initial denaturation at 95 °C for 30 s, followed by 40 cycles of 95 °C for 5 s and 60 °C for 30 s. All reactions were performed in triplicate, with melting curve analysis confirming amplification specificity. The expression of the target genes was normalized to GAPDH, and fold changes were calculated in the manner of the 2^−ΔΔCT ."}, "[2]": {"settings": "cited from earlier work"}, "MMP9 mRNA in SAS cells": {"tested_on": "MMP9 mRNA in SAS cells", "experiment": "RT-qPCR MMP9 mRNA, SAS", "type": "cell-based", "settings": "vs control", "experimental": "as §1, §2"}, "[3]": {"settings": "cited from earlier work", "remark": "listed apart in the source"}}, "note": "“Also recorded” adds a separate entry of the source."}
{"compound": "Cc1ccc(-c2cc(C)n(S(=O)(=O)Oc3ccc(I)cc3)n2)cc1", "note": "[Compound 4b]", "values": [{"measurement": "p-JAK1 level (Western blot)", "setting": "[1]", "value": "no significant change"}, {"measurement": "total apoptotic cell population (early and late apoptosis)", "setting": "CAL-27 cells", "value": "significantly higher; also recorded: strongest pro-apoptotic effect"}, {"measurement": "BCL2 mRNA expression", "setting": "BCL2 mRNA in SAS cells", "value": "significantly suppressed"}, {"measurement": "oral toxicity", "setting": "[2]", "value": "low oral toxicity"}, {"measurement": "MMP9 mRNA level", "setting": "MMP9 mRNA in SAS cells", "value": "significant reduction"}, {"measurement": "anti-inflammatory and analgesic activities", "setting": "[3]", "value": "excellent"}]}
{"compound": "Cc1ccc(-c2cc(C)n(S(=O)(=O)Oc3ccccc3Cl)n2)cc1", "note": "[Compound 4d]", "values": [{"measurement": "total JAK1 (Western blot)", "setting": "[1]; vs NC", "value": "reached statistical significance"}, {"measurement": "total apoptotic cell population (early and late apoptosis)", "setting": "CAL-27 cells", "value": "significantly higher"}, {"measurement": "oral toxicity", "setting": "[2]", "value": "low oral toxicity"}, {"measurement": "anti-inflammatory and analgesic activities", "setting": "[3]", "value": "excellent"}]}
{"compound": "Cc1cc(-c2ccco2)nn1S(=O)(=O)Oc1ccccc1Cl", "note": "[Compound 5f]", "values": [{"measurement": "total apoptotic cell population (early and late apoptosis)", "setting": "CAL-27 cells", "value": "significantly higher"}, {"measurement": "BCL2 mRNA expression", "setting": "BCL2 mRNA in SAS cells", "value": "significantly suppressed"}]}
